From patent US9718802B2, “Crystal form of dabigatran etexilate mesylate and preparation method and use thereof” (Zhejiang Hisun Pharmaceutical Co., Ltd., priority 2014, dated 2017) come the findings set out here.

What all share (type): physicochemical
Data set [1] is described as follows: Test 2 stability data under 5° C. for 6 months (liquid chromatography). Particulars: for Major peak: 5° C., in % (unit assumed); for storage stability: cold storage and freezing conditions. How it is done:
(§1) Liquid chromatography test conditions are: chromatographic column is Merck Purospher®STAR RP-18 endcapped 250×4.6 mm, 5 μm; mobile phase A: acetonitrile, mobile phase B: 4 ml phosphoric acid added in 1 L water, the pH is adjusted to 3.5 by triethylamine; detecting wavelength: 310 nm; flow rate: 1 ml/min; sample load: 10 μl; column temperature: 30° C., liquid chromatography conditions are shown in table 4:
(§2) The inventor has tested the chemical stability of the crystal form M and crystal form N under normal temperature, cold storage and freezing conditions and compared the chemical stability with crystal form I, crystal form II and semihydrate crystal form, see tests 1-3. In the tests, crystal form I, crystal form II and semihydrate crystal form are all prepared according to the method disclosed in patent document U.S. Pat. No. 7,932,273B2.
Test 2 stability data under 5° C. for 6 months (see table 6)

Data set [2] is described as follows: Test 3 stability data under −20° C. for 6 months (liquid chromatography). To be noted: in % (unit assumed). How it is done: as §1, §2
Test 3 stability data under −20° C. for 6 months (see table 7)

The nature of data set [3]: Test 1 stability data under 25° C. for 6 months (liquid chromatography). Particulars: for Major peak: 25° C., in % (unit assumed); for chemical stability compared with crystal form I, crystal form II and the semihydrate crystal form: normal temperature and cold storage conditions. How it is done: as §1, §2
Data set [4] can be described thus: Crystal form of samples after 6 months stability tests under different temperature. To be noted: 6 months under different temperature.
Data set [5] is described as follows: Test 4 stability of crystal form N in 95% ethanol solution (XRD). To be noted: stirred for 3, 4 and 5 hours. How it is done:
In the following examples and tests, the powder X-ray diffractometer and the test conditions are: X-ray diffractomer model Rigaku D/max-2200 Cu target; operation method: scan rate 4°/min, scan width 0.01°.
Test 4 the stability in formulation of crystal form N
This indicate that the crystal form N is stable in the 95% ethanol solution, therefore, it has great stability in the related formulation processes.

“Also recorded” adds a separate entry of the source.

With `CCCCCCOC(=O)/N=C(/N)c1ccc(NCc2nc3cc(C(=O)N(CCC(=O)OCC)c4ccccn4)ccc3n2C)cc1.CS(=O)(=O)O` [Semihydrate crystal form, 3-[(2-{[4-(hexaoxycarbonylamino-imino-methyl)-phenylamino]-methyl}-1-methyl-1H-benzimidazole-5-carbonyl)-pyridine-2-yl-amino-]-ethyl propionate-mesylate], the Major peak in data set [1] (0 month) was determined as 99.828; in data set [1] (1 month), 99.827; in data set [1] (2 months), 99.830; in data set [1] (3 months) it was 99.826; in data set [1] (4 months), 99.831; in data set [1] (5 months), 99.827. In addition, the Major peak in data set [1] (6 months) was found to be 99.832; in data set [2] (1 month) it was 99.834; in data set [2] (2 months), 99.833; in data set [2] (3 months), 99.836; in data set [2] (4 months), 99.839; in data set [2] (5 months) it was 99.840. The Major peak in data set [2] (6 months) is on record as 99.836; in data set [3] (0 month), 99.847; in data set [3] (1 month) it was 99.707; in data set [3] (2 months) it was 99.631; in data set [3] (3 months), 99.587; in data set [3] (4 months), 99.447. Further, the values for the Major peak in data set [3] (5 months) and in data set [3] (6 months) were 99.334 and 99.254, respectively.
As to `CCCCCCOC(=O)/N=C(/N)c1ccc(NCc2nc3cc(C(=O)N(CCC(=O)OCC)c4ccccn4)ccc3n2C)cc1.CS(=O)(=O)O` [Crystal form N, 3-[(2-{[4-(hexaoxycarbonylamino-imino-methyl)-phenylamino]-methyl}-1-methyl-1H-benzimidazole-5-carbonyl)-pyridine-2-yl-amino-]-ethyl propionate-mesylate], the Major peak in data set [1] (0 month) is given as 99.660; in data set [1] (1 month), 99.659; in data set [1] (2 months), 99.655; in data set [1] (3 months), 99.652; in data set [1] (4 months), 99.650; in data set [1] (5 months), 99.650. Further, the Major peak in data set [1] (6 months) is listed as 99.649; in data set [2] (1 month), 99.723; in data set [2] (2 months), 99.726; in data set [2] (3 months), 99.734; in data set [2] (4 months) it was 99.733; in data set [2] (5 months) it was 99.734. Further, the Major peak in data set [2] (6 months) was 99.733; in data set [3] (0 month), 99.701; in data set [3] (1 month) it was 99.631; in data set [3] (2 months), 99.618; in data set [3] (3 months) it was 99.601; in data set [3] (4 months) it was 99.580. Moreover, the Major peak in data set [3] (5 months) was determined as 99.572; in data set [3] (6 months) it was 99.536. Moreover, in data set [1], the storage stability entry is “can be stored stable for a long time”. The “crystal form of samples after stability tests” value in data set [4] is on record as “not changed”. In data set [5], the “stability in 95% ethanol solution (X-Ray powder diffractograms)” value is given as “not changed within 5 hours; also recorded: very good stability”. The “chemical stability compared with crystal form I, crystal form II and the semihydrate crystal form” value in data set [3] is given as “better chemical stability”.
With `CCCCCCOC(=O)/N=C(/N)c1ccc(NCc2nc3cc(C(=O)N(CCC(=O)OCC)c4ccccn4)ccc3n2C)cc1.CS(=O)(=O)O` [Crystal form M, 3-[(2-{[4-(hexaoxycarbonylamino-imino-methyl)-phenylamino]-methyl}-1-methyl-1H-benzimidazole-5-carbonyl)-pyridine-2-yl-amino-]-ethyl propionate-mesylate], the Major peak in data set [1] (0 month) is given as 99.654; in data set [1] (1 month), 99.650; in data set [1] (2 months) it was 99.648; in data set [1] (3 months) it was 99.651; in data set [1] (4 months), 99.649; in data set [1] (5 months) it was 99.649. The Major peak in data set [1] (6 months) is on record as 99.648; in data set [2] (1 month), 99.722; in data set [2] (2 months), 99.728; in data set [2] (3 months), 99.737; in data set [2] (4 months) it was 99.737; in data set [2] (5 months) it was 99.739. For the same molecule, the Major peak came to 99.737 in data set [2] (6 months); 99.711 in data set [3] (0 month); 99.632 in data set [3] (1 month); 99.614 in data set [3] (2 months); 99.595 in data set [3] (3 months); 99.582 in data set [3] (4 months). The Major peak came out at 99.574 in data set [3] (5 months) and 99.541 in data set [3] (6 months). In data set [1], the storage stability result is given as “can be stored stable for a long time”. In data set [4], the “crystal form of samples after stability tests” value is on record as “not changed”. For the same molecule, the “chemical stability compared with crystal form I, crystal form II and the semihydrate crystal form” value in data set [3] was “better chemical stability”.
On to `CCCCCCOC(=O)/N=C(/N)c1ccc(NCc2nc3cc(C(=O)N(CCC(=O)OCC)c4ccccn4)ccc3n2C)cc1.CS(=O)(=O)O` [Crystal form II, 3-[(2-{[4-(hexaoxycarbonylamino-imino-methyl)-phenylamino]-methyl}-1-methyl-1H-benzimidazole-5-carbonyl)-pyridine-2-yl-amino-]-ethyl propionate-mesylate], for which the Major peak was 99.631 in data set [1] (0 month); 99.630 in data set [1] (1 month); 99.643 in data set [1] (2 months); 99.640 in data set [1] (3 months); 99.641 in data set [1] (4 months); 99.598 in data set [1] (5 months). Besides, the Major peak in data set [1] (6 months) was 99.592; in data set [2] (1 month), 99.630; in data set [2] (2 months), 99.633; in data set [2] (3 months), 99.634; in data set [2] (4 months), 99.630; in data set [2] (5 months), 99.632. In addition, the Major peak is 99.632 in data set [2] (6 months); 99.646 in data set [3] (0 month); 99.493 in data set [3] (1 month); 99.408 in data set [3] (2 months); 99.290 in data set [3] (3 months); 99.069 in data set [3] (4 months). In addition, the Major peak in data set [3] (5 months) is reported as 99.029; in data set [3] (6 months), 98.911.
`CCCCCCOC(=O)/N=C(/N)c1ccc(NCc2nc3cc(C(=O)N(CCC(=O)OCC)c4ccccn4)ccc3n2C)cc1.CS(=O)(=O)O` [Crystal form I, 3-[(2-{[4-(hexaoxycarbonylamino-imino-methyl)-phenylamino]-methyl}-1-methyl-1H-benzimidazole-5-carbonyl)-pyridine-2-yl-amino-]-ethyl propionate-mesylate]: the Major peak in data set [1] (0 month) turned out to be 99.676; in data set [1] (1 month), 99.655; in data set [1] (2 months), 99.651; in data set [1] (3 months) it was 99.652; in data set [1] (4 months) it was 99.651; in data set [1] (5 months) it was 99.649. For the same molecule, the Major peak in data set [1] (6 months) was 99.643; in data set [2] (1 month) it was 99.693; in data set [2] (2 months), 99.694; in data set [2] (3 months), 99.690; in data set [2] (4 months), 99.692; in data set [2] (5 months), 99.691. For the same molecule, the Major peak in data set [2] (6 months) came out at 99.692; in data set [3] (0 month) it was 99.690; in data set [3] (1 month) it was 99.604; in data set [3] (2 months) it was 99.574; in data set [3] (3 months) it was 99.468; in data set [3] (4 months), 99.308. The Major peak is given as 99.309 in data set [3] (5 months) and 99.220 in data set [3] (6 months).
